In patent US20060058390A1 (priority 2004, published 2006):
Like-named read-outs stand apart in the source and are kept apart here.

Tests used:
[1] = male, Sprague-Dawley, rat, in vivo, 150 mg/kg
Protocol: Twenty-six male Sprague-Dawley rats weighing approximately 200 to 300 g were used for the study. The jugular vein of six animals were cannulated and the rest of the animals were used without any further preparation.
Dosing was conducted on two occasions. […] The drug was prepared in a suspension formulation in accordance with the present invention. The blood samples (approximately 0.5 mL/sample) were collected from each animal at predose, 15, 30 minutes, 1, 2, 4 and 6 hours postdose into microtainer tubes containing lithium heparin as an anticoagulant. Replacement blood was infused into each animal following each blood draw. […] The drug was prepared in a solution formulation. […] Blood samples were collected from each animal via the orbital sinus at predose, 2, 15, 30 minutes, 1, 2, 4 and 6 hours postdose. Each animal was bled twice. The blood was centrifuged immediately and the resulting plasma in tubes was flash frozen in liquid nitrogen and stored at approximately −70° C. until analysis.
L-Methinione can also be detected under the same HPLC conditions.
Descriptive pharmacokinetic parameters were determined by standard model independent methods (Gibaldi, M. and Perrier, D. Pharmacokinetics, Second Edition, Marcel Dekker, Inc., New York, 1982) based on the mean plasma concentration-time data. The plasma concentrations were rounded to one decimal place before the calculation. Plasma samples with concentrations below the quantifiable limit (BQL) were assigned values of zero for the calculation of mean plasma concentration.
The mean plasma concentration-time profiles are depicted in FIG. 2.

[2] = tested on: oxidative stress-induced ototoxicity and nephrotoxicity; conditions: in vivo; cited from earlier work
[3] = cited from earlier work

In the case of `CSCC[C@H](N)C(=O)O` [L-Methionine, L-methionine], the “AUC(0-inf) of L-Methionine” value ([1]; iv) is reported as 326.0 µg·h/mL, the “Cmax of L-Methionine” value ([1]; iv) is reported as 161700 ng/mL and the “T1/2 (half-life) of L-Methionine” value ([1]; iv) is reported as 1.9 h. For the same compound, the “Tmax of L-Methionine” value ([1]; iv) was 0.50 h, the “Mean Plasma Concentrations of L-Methionine” value (“Mean Plasma Concentrations” for short) ([1]; iv, 0 h) was 132.6 ng/mL and the “Mean Plasma Concentrations” value ([1]; iv, 0.03 h) was 132.6 ng/mL. The “Mean Plasma Concentrations” value ([1]; iv, 0.25 h) was 146.5 ng/mL, the “Mean Plasma Concentrations” value ([1]; iv, 0.5 h) was 161.7 ng/mL and the “Mean Plasma Concentrations” value ([1]; iv, 1 h) was 76.1 ng/mL. The “Mean Plasma Concentrations” value ([1]; iv, 2 h) was 45.4 ng/mL, the “Mean Plasma Concentrations” value ([1]; iv, 4 h) was 23.2 ng/mL and the “Mean Plasma Concentrations” value ([1]; iv, 6 h) was 10.7 ng/mL. The “AUC(0-inf) of L-Methionine” value ([1]; po) was 450.2 µg·h/mL, the “Cmax of L-Methionine” value ([1]; po) was 47200 ng/mL and the “T1/2 (half-life) of L-Methionine” value ([1]; po) was 9.9 h. The “Tmax of L-Methionine” value ([1]; po) was 2.00 h, the “Mean Plasma Concentrations” value ([1]; po, 0 h) was 7.8 ng/mL and the “Mean Plasma Concentrations” value ([1]; po, 0.5 h) was 33.1 ng/mL. The “Mean Plasma Concentrations” value ([1]; po, 1 h) was 32.0 ng/mL, the “Mean Plasma Concentrations” value ([1]; po, 2 h) was 47.2 ng/mL and the “Mean Plasma Concentrations” value ([1]; po, 4 h) was 22.2 ng/mL. The “Mean Plasma Concentrations” value ([1]; po, 6 h) was 18.8 ng/mL, the “Mean Plasma Concentrations” value ([1]; po, 12 h) was 12.6 ng/mL and the “effect on oxidative stress-induced ototoxicity and nephrotoxicity associated with cisplatin” value [2] was “effectively prevent”. The “dosage reported safe for chronic administration” value ([3]; adult) was 20 g/day and the “side-effects in human studies” value ([3]; most human studies) was “no side-effects”.
